In US12534469B2 (CHILDREN'S HOSPITAL MEDICAL CENTER, priority 2020, dated 2026) one finds IC50 data, which are given here for twelve compounds.

Where only a bound is given, the exact number is not on record here.

This experiment deals with T1, FLT3 (Homo sapiens, UniProt P36888).
T1 construct: using full-length kinases in the presence of cellular concentrations of ATP in live, uncompromised cells; assay by Reaction Biology; host or cells: HEK-293 (ATCC), transient transfection
T1 sequence (P36888 27-993): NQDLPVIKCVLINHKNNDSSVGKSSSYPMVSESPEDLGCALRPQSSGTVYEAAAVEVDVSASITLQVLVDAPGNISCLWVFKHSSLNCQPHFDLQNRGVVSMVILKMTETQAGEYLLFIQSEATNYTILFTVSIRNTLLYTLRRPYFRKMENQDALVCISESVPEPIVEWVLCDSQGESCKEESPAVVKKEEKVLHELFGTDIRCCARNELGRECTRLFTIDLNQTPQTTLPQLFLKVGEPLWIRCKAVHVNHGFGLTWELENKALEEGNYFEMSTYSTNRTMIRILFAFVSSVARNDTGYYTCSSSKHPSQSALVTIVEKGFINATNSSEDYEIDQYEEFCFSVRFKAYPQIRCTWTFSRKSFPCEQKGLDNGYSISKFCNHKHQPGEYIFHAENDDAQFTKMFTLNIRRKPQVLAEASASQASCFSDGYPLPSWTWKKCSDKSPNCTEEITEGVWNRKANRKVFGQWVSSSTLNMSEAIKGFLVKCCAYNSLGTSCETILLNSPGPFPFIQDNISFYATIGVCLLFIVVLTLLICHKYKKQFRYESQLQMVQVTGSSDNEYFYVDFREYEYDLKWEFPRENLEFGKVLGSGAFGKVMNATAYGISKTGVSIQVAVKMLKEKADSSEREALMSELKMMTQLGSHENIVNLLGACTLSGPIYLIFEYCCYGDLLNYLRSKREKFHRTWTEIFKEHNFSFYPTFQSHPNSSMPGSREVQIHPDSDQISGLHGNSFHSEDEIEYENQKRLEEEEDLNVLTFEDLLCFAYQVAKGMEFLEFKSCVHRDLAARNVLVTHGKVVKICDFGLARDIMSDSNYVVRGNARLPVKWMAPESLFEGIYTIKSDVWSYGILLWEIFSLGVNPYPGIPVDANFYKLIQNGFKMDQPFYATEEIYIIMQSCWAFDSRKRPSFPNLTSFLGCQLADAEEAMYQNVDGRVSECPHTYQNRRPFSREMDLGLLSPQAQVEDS
Nature of the experiment: Reaction Biology NanoBRET target engagement assay, FLT3. In kind it is cell-based. The conditions noted are these: transfected HEK-293 cells. The text has this:
The NanoBRET assay measures kinase engagement in real time in the context of the intact cell. Unlike the previously described biochemical kinase assay methodologies in Examples 26-27, the NanoBRET assay measures the binding and activity characteristics under equilibrium conditions using full-length kinases in the presence of cellular concentrations of ATP in live, uncompromised cells. As such, the assay provides a more relevant assessment of kinase potency and selectivity that would be expected to be observed in the native cellular environment, where potency is often considerably lower than that observed in the isolated biochemical assays (Vasta, J. D. et al., (2018) Cell Chem. Biol. 25, 206-214). The assay uses a Kinase-NanoLuc® fusion vector expressing a kinase protein to which a luciferase tag has been added, a cell-permeant fluorescent NanoBRET™ tracer, a NanoLuc® substrate, and an extracellular NanoLuc® inhibitor. Upon expression of the luciferase-tagged kinase, cells will produce a strong BRET signal only in the presence of the NanoBRET™ tracer. The extracellular NanoLuc® inhibitor ensures that the BRET signal observed emanates only from live cells. Because the BRET signal has tight distance constraints, addition of the test compound will decrease the BRET signal if the compound competes with the NanoBRET™ tracer for binding to the kinase domain. Under the appropriate tracer conditions established by the manufacturer, quantitative intracellular affinity and relative potency can then be determined using Mass Action model equations.
HEK-293 cells were purchased from ATCC. FuGENEHD Transfection Reagent, Kinase-NanoLucfusion plasmids, Transfection Carrier DNA, NanoBRETTracers and dilution buffer, NanoBRETNano-Glo Substrate, Extracellular NanoLucInhibitor were obtained from Promega.
Assays were conducted following Promega assay protocol with some modifications. HEK-293 Cells were transiently transfected with Kinase-NanoLucFusion Vector DNA by FuGENEHD Transfection Reagent. Testing compounds were delivered into 384 well assay plate by Echo 550 (LabcyteInc, Sunnyvale, CA). Transfected cells were harvested and mixed with NanoBRETTracer Reagent and dispensed into 384 well plates and incubated at 37° C. in 5% CO2 cell culture incubator for 1 hour. The NanoBRETNano-Glo Substrate plus Extracellular NanoLucInhibitor Solution were added into the wells of the assay plate and incubated for 2-3 minutes at room temperature. The donor emission wavelength (460 nm) and acceptor emission wavelength (600 nm) were measured in the EnVisionplate reader. The BRET Ratios were calculated. BRET Ratio=[(Acceptor sample÷Donor sample)−(Acceptor no-tracer control÷Donor no-tracer control)]. The IC50 values of compounds were calculated with Prism GraphPad program.
• 1). Cultivate HEK-293 cells (70-80% confluence) appropriately prior to assay. Trypsinize and collect HEK-293 cells. • 2). Prepare lipid: DNA complexes as follows: • a. Prepare a 10 μg/ml solution of DNA in Opti-MEM without serum that consists of the following ratios of carrier DNA and DNA encoding NanoLuc® fusion. 9.0 μg/mL of Transfection Carrier DNA, 1.0 μg/mL of NanoLuc fusion vector DNA and 1 mL of Opti-MEM without phenol red. Mix thoroughly. • b. Add 30 μl of FuGENE HD Transfection Reagent into each milliliter of DNA mixture to form lipid:DNA complex. • c. Mix by inversion 10 times. • d. Incubate at ambient temperature for 20 minutes to allow complexes to form. • 3). In a sterile, conical tube, mix 1 part of lipid:DNA complex with 20 parts of HEK-293 cells in suspension. Mix gently by inversion 5 times. • 4). Dispense cells+lipid:DNA complex into a sterile tissue culture dish and incubate for 22-24 hours. 2. Addition of Test Compounds (Dry Plate Shooting)
Each test compound is delivered from the compound source plate to the wells of 384-well white NBS plate by Echo 550.
• 1). […]
As usually defined, the IC50 is the concentration at which inhibition is half-maximal. Lower therefore signals greater potency. Compound `COc1cc2ncc(-c3cccc(N[C@H]4CNC[C@@H]4F)n3)n2nc1C(C)(O)C(F)(F)F` (single isomer, unassigned; fast-eluting) [Compound 133] returned an IC50 of 226 nM.

`c1cc(N[C@@H]2CCCNC2)nc(-c2cnc3ccc(-c4cnn5ccccc45)nn23)c1` [Compound 19, (R)-N-(piperidin-3-yl)-6-(6-(pyrazolo[1,5-a]pyridin-3-yl)imidazo[1,2-b]pyridazin-3-yl)pyridin-2-amine]: the IC50 amounted to 142 nM.

As for `COc1cc2ncc(-c3cccc(N[C@H]4CNC[C@@H]4C(F)(F)F)n3)n2nc1C1CC1` [Compound 99, 6-(6-cyclopropyl-7-methoxyimidazo[1,2-b]pyridazin-3-yl)-N-((3R,4S)-4-(trifluoromethyl)pyrrolidin-3-yl)pyridin-2-amine], the IC50 worked out at 3 nM.

Turning to `COc1cc2ncc(-c3nc(N[C@H]4CNCC[C@@H]4F)c(F)cc3F)n2nc1C1CC1` [Compound 108, 6-(6-cyclopropyl-7-methoxyimidazo[1,2-b]pyridazin-3-yl)-3,5-difluoro-N-((3S,4S)-4-fluoropiperidin-3-yl)pyridin-2-amine], the IC50 was less than 0.5 nM.

The compound `COc1cc2ncc(-c3nc(N[C@@H]4CCCNC4)c(F)cc3F)n2nc1C1CC1` [Compound 106, (R)-6-(6-cyclopropyl-7-methoxyimidazo[1,2-b]pyridazin-3-yl)-3,5-difluoro-N-(piperidin-3-yl)pyridin-2-amine] showed an IC50 of less than 0.5 nM.

With `COc1cc2ncc(-c3nc(N[C@H]4CNCC[C@@H]4F)c(F)cc3F)n2nc1C(C)(C)O` [Compound 128, 2-(3-(3,5-difluoro-6-(((3S,4S)-4-fluoropiperidin-3-yl)amino)pyridin-2-yl)-7-methoxyimidazo[1,2-b]pyridazin-6-yl)propan-2-ol], the IC50 worked out at 102 nM.

`COc1cc2ncc(-c3nc(N[C@@H]4CCCNC4)c(F)cc3F)n2nc1C(C)(C)O` [Compound 127, (R)-2-(3-(3,5-difluoro-6-(piperidin-3-ylamino)pyridin-2-yl)-7-methoxyimidazo[1,2-b]pyridazin-6-yl)propan-2-ol] registered a 50% inhibitory concentration (IC50) of 196 nM.

Compound `COc1cc2ncc(-c3cccc(N[C@H]4CNCC[C@@H]4F)n3)n2nc1C1CC1` [Compound 102, 6-(6-cyclopropyl-7-methoxyimidazo[1,2-b]pyridazin-3-yl)-N-((3S,4S)-4-fluoropiperidin-3-yl)pyridin-2-amine] yielded a half-inhibitory concentration (IC50) of 4 nM.

Consider `COc1cc2ncc(-c3nc(N[C@H]4CNC[C@@H]4F)c(F)cc3F)n2nc1C1CC1` [Compound 107, 6-(6-cyclopropyl-7-methoxyimidazo[1,2-b]pyridazin-3-yl)-3,5-difluoro-N-((3S,4S)-4-fluoropyrrolidin-3-yl)pyridin-2-amine], for which half-maximal inhibition (IC50) required 4890 nM.

Take `F[C@H]1CNC[C@@H]1Nc1cccc(-c2cnc3ccc(-c4cnn5ccccc45)nn23)n1` [Compound 9, N-((3S,4S)-4-fluoropyrrolidin-3-yl)-6-(6-(pyrazolo[1,5-a]pyridin-3-yl)imidazo[1,2-b]pyridazin-3-yl)pyridin-2-amine]: the IC50 was 367 nM.

Compound `COc1cc2ncc(-c3nc(N[C@H]4CNC[C@@H]4F)c(F)cc3F)n2nc1C(C)(C)O` [Compound 126, 2-(3-(3,5-difluoro-6-(((3S,4S)-4-fluoropyrrolidin-3-yl)amino)pyridin-2-yl)-7-methoxyimidazo[1,2-b]pyridazin-6-yl)propan-2-ol] returned an IC50 of 1160 nM.

`COc1cc2ncc(-c3cccc(N[C@H]4CNC[C@@H]4F)n3)n2nc1C1CC1` [Compound 96, 6-(6-cyclopropyl-7-methoxyimidazo[1,2-b]pyridazin-3-yl)-N-((3S,4S)-4-fluoropyrrolidin-3-yl)pyridin-2-amine]: the IC50 stood at 18 nM.
